From US9199962B2, “Substituted azaheterocycles for the treatment of cancer” (Merck Patent GmbH, priority 2011, dated 2015) come the findings set out here.

T1 sequence (Q05397 376-1052): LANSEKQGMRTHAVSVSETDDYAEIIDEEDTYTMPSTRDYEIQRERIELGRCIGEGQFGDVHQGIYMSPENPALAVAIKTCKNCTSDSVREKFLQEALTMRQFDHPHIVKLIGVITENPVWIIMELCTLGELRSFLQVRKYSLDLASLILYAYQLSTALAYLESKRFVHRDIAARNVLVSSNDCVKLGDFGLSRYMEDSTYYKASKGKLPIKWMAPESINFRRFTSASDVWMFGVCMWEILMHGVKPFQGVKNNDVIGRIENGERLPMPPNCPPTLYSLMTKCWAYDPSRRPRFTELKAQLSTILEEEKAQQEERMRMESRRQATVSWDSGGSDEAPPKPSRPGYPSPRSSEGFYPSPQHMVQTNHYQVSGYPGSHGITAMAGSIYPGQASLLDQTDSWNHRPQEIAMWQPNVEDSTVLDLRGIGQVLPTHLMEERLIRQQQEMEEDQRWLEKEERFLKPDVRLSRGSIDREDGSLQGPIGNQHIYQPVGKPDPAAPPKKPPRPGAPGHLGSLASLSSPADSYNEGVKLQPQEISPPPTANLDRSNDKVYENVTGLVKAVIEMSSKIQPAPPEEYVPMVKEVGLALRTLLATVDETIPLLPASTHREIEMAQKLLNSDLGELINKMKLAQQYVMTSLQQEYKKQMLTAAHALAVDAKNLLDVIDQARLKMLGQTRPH

One assay has as its target T1, GST-FAK (N-terminal GST fusion with truncated human FAK (376-1052 (end) amino acids)) (Homo sapiens, UniProt Q05397).
T1 construct: truncated human FAK (376-1052 (end) amino acids)
The assay is described as follows: Biochemical enzyme assay for FAK activity (Caliper LC3000 mobility shift). Conditions: Table 1; 100 uM ATP; read-out: FAK IC50. On the procedure:
1. Biochemical Enzyme Assays for FAK Activity
The FAK assays described here are performed on two Caliper Life Sciences systems, the LC3000 and the EZ Reader II. These provide data on enzyme activity via measurement of the relative amounts of phosphorylated or unphosphorylated fluorescently labelled substrate peptide at the end of an enzymatic reaction. These different states of peptide are resolved by applying a potential difference across the sample. The presence of the charged phosphate group on the product (as opposed to the substrate) causes different peptide mobility between the two peptides. This is visualized by excitation of the fluorescent label on the substrate and product peptides and represented as peaks within the analysis software.
In order to measure inhibitor activity of FAK, inhibitors in the Caliper Life Sciences LC3000, a TTP Mosquito liquid handling instrument is used to place 0.25 ul of the appropriate concentration of inhibitor in 100% DMSO (for a dose response curve calculation) into each well of a 384-well plate. To this reaction components are added to a final volume of 25 ul: • 0.067 ng/ul GST-FAK (N-terminal GST fusion with truncated human FAK (376-1052 (end) amino acids)) • 100 uM ATP • 1 mM DTT • 1 mM MgCl2 • 1 uM substrate peptide (sequence FITC-KGWMEDYDYVHLQGKK-(CONH2)SEQ ID NO: 1)) • 1 mM FERM peptide (sequence NH2-GATQSFIIR-COOH (SEQ ID NO: 2)) • 100 mM HEPES pH 7.5 • 0.015% Brij-35
The reaction is incubated for 90 min at 25 C, and then stopped by the addition of 70 ul of Stop buffer (100 mM HEPES pH 7.5, 0.015% Brij-35, 10 mM EDTA).
The plate is read on a Caliper LC 3000 in an Off-Chip mobility shift assay format, using the following parameters for a 12-sipper chip: screening pressure—1.9 psi, upstream voltage—3000, downstream voltage—700. These conditions cause unphosphorylated substrate and phosphorylated product peptide to resolve as separate peaks allowing direct measurement of percentage of conversion of substrate to product. The percent conversion can be plotted against concentration of inhibitor to produce a sigmoid dose response curve, from which an IC50 can be calculated using XLFit for Microsoft Excel.
The IC50 is the midpoint of a concentration-inhibition curve. Take `COc1cncc(-c2nccc(NCc3cccc(-n4cccn4)c3)n2)c1` [Compound 5, [2-(5-Methoxy-pyridin-3-yl)-pyrimidin-4-yl]-(3-pyrazol-1-yl-benzyl)-amine]: the IC50 lay within 1 to 10 µM.

Consider `Fc1ccc(Oc2ccc(CNc3ccnc(-c4cncc(Cl)c4)n3)cc2)cc1` [Compound 31, [2-(5-Chloro-pyridin-3-yl)-pyrimidin-4-yl]-[4-(4-fluoro-phenoxy)-benzyl]-amine], for which the concentration for half-maximal inhibition (IC50) is above 10 µM.

`O=C(c1cncc(-c2nccc(NCc3ccc4c(c3)OCCO4)n2)c1)N1CCOCC1` [Compound 15, (5-{4-[(2,3-Dihydro-benzo[1,4]dioxin-6-ylmethyl)-amino]-pyrimidin-2-yl}-pyridin-3-yl)-morpholin-4-yl-methanone]: the half-inhibitory concentration (IC50) was above 10 µM.

The assay is the same for the next values; noted with them: Table 3; 100 uM ATP; read-out: FAK IC50.
For `Nc1ncccc1-c1nccc(NCc2cccc(F)c2F)n1` [Compound 85, 2-(2-Aminopyridin-3-yl)-N-(2,3-difluorobenzyl)pyrimidin-4-amine], the IC50 was in the range of 1 to 10 µM.

Regarding `Nc1ncccc1-c1nccc(NCc2ncccc2C(F)(F)F)n1` [Compound 100, 2-(2-Aminopyridin-3-yl)-N-{[3-(trifluoromethyl)pyridin-2-yl]methyl}pyrimidin-4-amine], the IC50 fell in the range of 1 to 10 µM.

For the compound `Cc1cccc(CNc2ccnc(-c3cccnc3N)n2)c1` [Compound 95, 2-(2-Aminopyridin-3-yl)-N-(3-methylbenzyl)pyrimidin-4-amine], the IC50 was above 10 µM.

Turning to `Nc1ncccc1-c1nccc(NCc2cccc(F)c2)n1` [Compound 79, 2-(2-Aminopyridin-3-yl)-N-(3-fluorobenzyl)pyrimidin-4-amine], the IC50 was above 10 µM.

As for `c1ccc(CNc2ccnc(-c3cccnc3)n2)cc1` [Compound 139, N-Benzyl-2-pyridin-3-ylpyrimidin-4-amine], the IC50 was above 10 µM.

As for `CS(=O)(=O)c1cccc(CNc2ccnc(-c3cccnc3N)n2)c1` [Compound 90, 2-(2-Aminopyridin-3-yl)-N-[3-(methylsulfonyl)benzyl]pyrimidin-4-amine], the IC50 lay in the range of 1 to 10 µM.

Still in this assay, the particulars now being: Table 5; 100 uM ATP; read-out: FAK IC50.
In the case of `N#Cc1cncc(-c2ncc(C(F)(F)F)c(NCc3ccc(F)cc3F)n2)c1` [Compound 215, 5-[4-(2,4-Difluoro-benzylamino)-5-trifluoromethyl-pyrimidin-2-yl]-nicotinonitrile], the IC50 is above 10 µM.

Consider `Fc1cc(Cl)ccc1CNc1cc(-c2cncc(C(F)(F)F)c2)ncn1` [Compound 253, (4-Chloro-2-fluoro-benzyl)-[6-(5-trifluoromethyl-pyridin-3-yl)-pyrimidin-4-yl]-amine], for which the half-maximal inhibitory concentration (IC50) was in the range of 1 to 10 µM.

For `O=C1CCCN1CCNc1ccnc(-c2cncc(C(F)(F)F)c2)n1` [Compound 200, 1-{2-[2-(5-Trifluoromethyl-pyridin-3-yl)-pyrimidin-4-ylamino]-ethyl}-pyrrolidin-2-one], the IC50 was above 10 µM.

As to `Fc1ccccc1CNc1ccnc(-c2cccnc2F)n1` [Compound 205, (2-Fluoro-benzyl)-[2-(2-fluoro-pyridin-3-yl)-pyrimidin-4-yl]-amine], the IC50 was in the range of 1 to 10 µM.

For the compound `Fc1ccc(CNc2nccc(-c3cncc(C(F)(F)F)c3)n2)c(C(F)(F)F)c1` [Compound 247, (4-Fluoro-2-trifluoromethyl-benzyl)-[4-(5-trifluoromethyl-pyridin-3-yl)-pyrimidin-2-yl]-amine], the IC50 is below 0.1 µM.

For the compound `CN(c1ncccc1CNc1nccc(-c2cncc(C(F)(F)F)c2)n1)S(C)(=O)=O` [Compound 251, N-Methyl-N-(3-{[4-(5-trifluoromethyl-pyridin-3-yl)-pyrimidin-2-ylamino]-methyl}-pyridin-2-yl)-methanesulfonamide], the IC50 lay within 1 to 10 µM.

As for `Fc1cccnc1CNc1ccnc(-c2cncc(C(F)(F)F)c2)n1` [Compound 208, (3-Fluoro-pyridin-2-ylmethyl)-[2-(5-trifluoromethyl-pyridin-3-yl)-pyrimidin-4-yl]-amine], the 50% inhibitory concentration (IC50) lay within 0.1 to 1 µM.

Take `COc1cncc(-c2nccc(NCc3csc(-c4ccccc4)n3)n2)c1` [Compound 221, [2-(5-Methoxy-pyridin-3-yl)-pyrimidin-4-yl]-(2-phenyl-thiazol-4-ylmethyl)-amine]: the IC50 was above 10 µM.
